Results: PMC9226319, “Peripherally restricted transthyretin-based delivery system for probes and therapeutics avoiding opioid-related side effects” (Nature Communications, 2022)
Several values for one entry are separate records, joined by “and”; a condition that tells them apart may be missing. Equal entries are not always repeated. Where two headings read alike, the source gives them in different places.

Assays:
in vitro = conditions: human, % Cell viability, replicates
in vivo [1] = conditions: male, Sprague Dawley, rat, iv
in vivo [2] = conditions: male, Sprague Dawley, rat, sc
TTR in human serum = TTR in human serum (Homo sapiens, UniProt P02766); experiment: TTR serum fluorescent probe exclusion (FPE) selectivity assay; format: binding; conditions: ligand 10 µM; for %FPE probe fluorescence: human serum, replicates
in vivo [3] = conditions: male, Sprague Dawley, rat, iv; remark: listed apart in the source
male Sprague-Dawley rats [4] = experiment: Gastrointestinal (GI) transit (charcoal meal) assays; format: in vivo, rat
[5] = rat; for plasma concentration: IV 4.84 µmol/kg, individual animals
[6] = target: T1, kappa opioid receptor (rat) (Rattus norvegicus, UniProt P34975); conditions: read-out: binding affinity to kappa-opioid receptor (Ki); cited from earlier work
T1 construct: Eurofins Cerep (France)

male Sprague-Dawley rats [7] = conditions: rat, in vivo, sc
[8] = rat; for plasma concentration: SC 16 µmol/kg, individual animals

T1 sequence (P34975 whole entry): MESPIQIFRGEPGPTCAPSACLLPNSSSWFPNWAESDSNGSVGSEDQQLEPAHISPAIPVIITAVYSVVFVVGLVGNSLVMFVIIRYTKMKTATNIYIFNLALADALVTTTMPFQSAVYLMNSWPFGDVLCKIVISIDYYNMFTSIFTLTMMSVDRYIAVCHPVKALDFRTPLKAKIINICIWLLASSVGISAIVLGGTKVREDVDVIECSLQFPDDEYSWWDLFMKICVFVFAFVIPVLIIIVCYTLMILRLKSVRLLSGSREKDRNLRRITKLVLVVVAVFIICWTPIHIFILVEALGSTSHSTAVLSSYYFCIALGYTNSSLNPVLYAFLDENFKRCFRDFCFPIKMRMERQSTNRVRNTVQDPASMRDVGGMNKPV

C=CCN1CC[C@]23c4c5ccc(O)c4O[C@H]2[C@@H](OCCOCCOCCOCCOCCOCCOCCOC)CC[C@@]3(O)[C@H]1C5 [Naloxegol, reference compound]
viability at 72 h, 10 µM (in vitro; 10 μM): 103%
viability at 72 h, 100 µM (in vitro; 100 μM): 99%
AUC(0-inf) (in vivo [1]; 4.84 umol/kg): 0.741 ± 0.0336 µM·h
Vd (in vivo [1]; 4.84 umol/kg): 2.76 ± 0.39 L/kg
clearance (in vivo [1]; 4.84 umol/kg): 109 mL/min/kg
half-life (in vivo [1]; 4.84 umol/kg): 1.72 ± 0.27 h
concentration at 0.03 h (in vivo [1]; 4.84 µmol/kg, plasma concentration, IV 4.84 µmol/kg, 0.03 h, individual animals): 1900 nM
concentration at 0.5 h (in vivo [1]; 4.84 µmol/kg, plasma concentration, IV 4.84 µmol/kg, 0.5 h, individual animals): 206 nM
concentration at 2 h (in vivo [1]; 4.84 µmol/kg, plasma concentration, IV 4.84 µmol/kg, 2 h, individual animals): 17.8 nM
concentration at 4 h (in vivo [1]; 4.84 µmol/kg, plasma concentration, IV 4.84 µmol/kg, 4 h, individual animals): 9.2 nM
concentration at 8 h (in vivo [1]; 4.84 µmol/kg, plasma concentration, IV 4.84 µmol/kg, 8 h, individual animals): 2.5 nM
AUC(0-inf) (in vivo [2]; 16 umol/kg): 3.68 ± 0.566 µM·h
CL/F (in vivo [2]; 16 umol/kg): 72.8 mL/min/kg
Vd/F (in vivo [2]; 16 umol/kg): 5.58 ± 0.96 L/kg
half-life (in vivo [2]; 16 umol/kg): 0.88 ± 0.02 h
concentration at 0.25 h (in vivo [2]; 16 µmol/kg, plasma concentration, SC 16 µmol/kg, 0.25 h, individual animals): 1930 nM
concentration at 0.5 h (in vivo [2]; 16 µmol/kg, plasma concentration, SC 16 µmol/kg, 0.5 h, individual animals): 2470 nM
concentration at 0.75 h (in vivo [2]; 16 µmol/kg, plasma concentration, SC 16 µmol/kg, 0.75 h, individual animals): 2870 nM
concentration at 1 h (in vivo [2]; 16 µmol/kg, plasma concentration, SC 16 µmol/kg, 1 h, individual animals): 1970 nM
concentration at 2 h (in vivo [2]; 16 µmol/kg, plasma concentration, SC 16 µmol/kg, 2 h, individual animals): 548 nM
% TTR occupancy in human serum (TTR in human serum; FPE probe 3.6 µM, 3 h reading relative to probe alone, text mean ± s.d., table replicates): 14.09% and 13.76% and 18.08% and 17.39%
%FPE probe fluorescence (TTR in human serum; time 0.000 h): 0.000%
%FPE probe fluorescence (TTR in human serum; time 0.083 h): -1.162% and 0.076% and 1.061% and 2.494%
%FPE probe fluorescence (TTR in human serum; time 0.250 h): 12.642% and 13.881% and 14.653% and 16.580%
%FPE probe fluorescence (TTR in human serum; time 0.500 h): 29.770% and 29.601% and 35.277% and 32.978%
%FPE probe fluorescence (TTR in human serum; time 1.000 h): 51.856% and 49.775% and 51.097% and 53.857%
%FPE probe fluorescence (TTR in human serum; time 1.250 h): 58.967% and 56.462% and 55.901% and 61.434%
%FPE probe fluorescence (TTR in human serum; time 1.500 h): 63.979% and 62.154% and 61.352% and 66.100%
%FPE probe fluorescence (TTR in human serum; time 1.750 h): 70.669% and 69.322% and 65.355% and 73.049%
%FPE probe fluorescence (TTR in human serum; time 2.000 h): 72.778% and 74.065% and 70.075% and 75.601%
%FPE probe fluorescence (TTR in human serum; time 2.250 h): 79.286% and 77.129% and 72.043% and 79.051%
%FPE probe fluorescence (TTR in human serum; time 2.500 h): 80.847% and 80.185% and 76.560% and 80.986%
%FPE probe fluorescence (TTR in human serum; time 2.750 h): 84.987% and 82.916% and 77.033% and 84.908%
%FPE probe fluorescence (TTR in human serum; time 3.000 h): 85.911% and 86.240% and 81.919% and 82.607%
%FPE probe fluorescence (TTR in human serum; time 3.500 h): 89.826% and 88.173% and 84.101% and 88.948%
%FPE probe fluorescence (TTR in human serum; time 3.750 h): 85.342% and 89.201% and 87.815% and 89.262%
%FPE probe fluorescence (TTR in human serum; time 4.000 h): 92.972% and 91.077% and 85.636% and 94.755%
%FPE probe fluorescence (TTR in human serum; time 4.250 h): 92.674% and 90.338% and 87.389% and 92.827%
%FPE probe fluorescence (TTR in human serum; time 4.500 h): 93.747% and 95.743% and 86.912% and 94.592%
%FPE probe fluorescence (TTR in human serum; time 4.750 h): 93.049% and 92.357% and 88.468% and 95.740%
%FPE probe fluorescence (TTR in human serum; time 5.000 h): 94.380% and 93.149% and 88.822% and 94.667%
%FPE probe fluorescence (TTR in human serum; time 5.250 h): 94.178% and 93.087% and 90.315% and 94.928%
%FPE probe fluorescence (TTR in human serum; time 5.500 h): 92.258% and 94.965% and 88.366% and 97.216%
%FPE probe fluorescence (TTR in human serum; time 5.750 h): 93.772% and 93.937% and 90.079% and 96.029%
%FPE probe fluorescence (TTR in human serum; time 6.000 h): 96.902% and 93.100% and 91.727% and 96.188%
Kp (in vivo [3]; percentage CSF to plasma ratio): 0.15
Kp (in vivo [3]; percentage brain to plasma ratio): 0.29
GI transit 2.5h as % of saline group (male Sprague-Dawley rats [4]; 3.5 μmol/kg, 2.5h, individual animals (Fig.9b)): 41.7% and 40.4% and 35.2% and 39.7% and 39.3% and 42.0%
GI transit as % of saline group (male Sprague-Dawley rats [4]; rat, in vivo, sc): 39.7 ± 2.5%
plasma concentration ([5]; 0.03 h): 2193.9 nM and 2301.3 nM
plasma concentration ([5]; 0.5 h): 144.7 nM and 149.7 nM
plasma concentration ([5]; 1 h): 58 nM and 27.2 nM and 41.1 nM
plasma concentration ([5]; 2 h): 16.1 nM and 15.5 nM
plasma concentration ([5]; 4 h): 4.6 nM and 6.8 nM
plasma concentration ([5]; 6 h): 1.8 nM and 4 nM and 5.8 nM
plasma concentration ([5]; 8 h): 2.3 nM and 1.4 nM
k ([5]; single IV bolus 4.84 µmol/kg): 0.41 ± 0.06 h⁻¹
Ki [6]: 8.7 nM
hot plate latency (male Sprague-Dawley rats [7]): 17.6 ± 4.0 s
plasma concentration ([8]; 0.03 h): 247 nM and 451 nM and 135 nM
plasma concentration ([8]; 0.25 h): 1100 nM and 1090 nM
plasma concentration ([8]; 0.5 h): 1750 nM and 2300 nM
plasma concentration ([8]; 0.75 h): 1870 nM and 2090 nM
plasma concentration ([8]; 1 h): 1410 nM and 2160 nM
plasma concentration ([8]; 2 h): 517 nM and 744 nM
plasma concentration ([8]; 4 h): 95.6 nM and 149 nM and 239 nM
plasma concentration ([8]; 6 h): 19 nM and 31.8 nM and 56.3 nM
plasma concentration ([8]; 8 h): 3.9 nM and 6.7 nM and 10.6 nM
k ([8]; single SC dose 16 µmol/kg): 0.79 ± 0.02 h⁻¹
